In EPA's ToxValDB 9.5 (doi:10.2903/j.efsa.2009.203r) one finds LC50, NOAEL and LD50 data, which are given here for two compounds.

In brackets after ≈: the same amount, converted by molar mass. Some results are limits rather than exact numbers.

One data set has as its system Oncorhynchus mykiss. As to conditions: acute; duration: 96 hours; mortality.
For another data set, the system named is Canidae. Particulars: oral, Dog Other, histopathology: nonneoplastic.
Another data set has as its system Rattus norvegicus. As to conditions: for LD50: acute, mortality.
Another data set concerns Anas platyrhynchos. Particulars: short-term; oral; feed; mortality.
Another data set relates to Colinus virginianus. Particulars: acute, oral, mortality.

A word on the NOAEL: it is the highest dose or exposure tested at which no adverse effect was seen. In the case of `CN=C=S` [Methyl isothiocyanate], in the data set with Oncorhynchus mykiss, the LC50 came to 0.0531 µg/mL (≈ 0.726 µM). For the same compound, the NOAEL in the data set with Canidae (subchronic, duration: 90 days, gavage) worked out at 0.4 mg/kg-day; in the data set with Rattus norvegicus (chronic, duration: 104 weeks, oral, drinking water, histopathology: nonneoplastic) it was 0.44 mg/kg-day; in the data set with Rattus norvegicus (reproduction developmental), 3 mg/kg-day. The compound also gave an LD50 in the data set on Rattus norvegicus (oral) of 147 mg/kg-day.
`CNC(=S)[S-].[Na+]` [Metam-sodium]: the LC50 in the data set with Anas platyrhynchos is over 324 mg/kg-day; with Colinus virginianus (diet), over 448 mg/kg-day. For the same compound, the NOAEL with Canidae (chronic, duration: 1 years, capsule) turned out to be 0.1 mg/kg-day; in the data set with Rattus norvegicus (chronic, duration: 2 years, histopathology: nonneoplastic), 1.5 mg/kg-day; in the data set with Rattus norvegicus (developmental, oral, gavage, development), 5 mg/kg-day. The LD50 in the data set on Colinus virginianus was found to be 211 mg/kg-day; in the data set with Rattus norvegicus (oral), 896 mg/kg-day.
